# From patent US20230021647A1, “METHOD OF TREATING A PATIENT INFECTED WITH A CORONAVIRUS AND HAVING A BASELINE LEVEL OF CRP BELOW 150 MG/L” (Theravance Biopharma R&D IP, LLC, priority 2021, published 2023)
# Marks after values point to notes of the source that are not given here.
# What was measured:
# [1] = Phase 1 SAD/MAD study of inhaled compound 1 in healthy subjects; type: in vivo, human
# Protocol: This was a phase 1, 2-part, double-blind, randomized, placebo controlled, sponsor-open, SAD (Part A) and MAD (Part B). Subjects participated in only 1 cohort in only 1 study part.
# Part A (SAD) consisted of three (3) cohorts of 8 healthy subjects (6 active and 2 placebo). In each cohort, subjects received a single inhaled dose of compound 1 or placebo. […] Cardiodynamic monitoring via Holter monitors was conducted pre-dose and for at least 24 hours following dosing on Day 1 in each cohort, with rest periods for cardiodynamic electrocardiogram (ECG) extractions time matched to the PK sampling time points.
# Part B (MAD) consisted of three (3) cohorts of 10 healthy subjects (8 active and 2 placebo). In each cohort, subjects received inhaled doses once daily (QD) for 7 days. […] Blood samples for PK assessment were also collected pre-dose on the morning of Days 3 through 6. Cardiodynamic monitoring via Holter monitors may be conducted pre-dose on Day 1 and pre-dose and for at least 24 hours following dosing on the morning of Day 7 in each cohort with rest periods for cardiodynamic ECG extractions time matched to the PK sampling time points.
# In Parts A and B, safety data (i.e., physical examinations, vital signs, 12-lead safety ECGs, spirometry, clinical laboratory tests, and adverse events [AEs]) were assessed throughout the study; and blood and urine samples were collected for safety assessments. All subjects who received at least one dose of study drug (including subjects who terminated the study early) returned to the CRU 7 (±2) days after the last study drug administration for follow-up procedures, and to determine if any AEs have occurred since the last study visit.
# In Part B, subjects received inhaled doses QD for 7 days using a nebulizer device.
# Morning doses on Days 1 and 7 were administered under fasting conditions due to cardiodynamic monitoring. On all other times, doses were administered at least 30 minutes after completion of a meal or snack. Hour 0 was defined as the beginning of inhalation in each morning dose administration.
# [2] = tested on: acute lung injury associated with COVID-19; assay: Phase 2 study Part 1, multiple ascending dose in hospitalized COVID-19 patients; type: in vivo, human
# [3] = single and multiple inhaled doses
# [4] = Part 1, 1 mg QD inhaled, Day 28
# [5] = Part 1, 3 mg QD inhaled, Day 28
smiles,measurement,setting,value
"CCc1cc(O)ccc1-c1ccc2c(-c3nc4c([nH]3)CN(C(C)C)[C@H](C(=O)N3CC(N(C)C)C3)C4)n[nH]c2c1 [Compound 1, (S)-(3-(dimethylamino)azetidin-1-yl)(2-(6-(2-ethyl-4-hydroxyphenyl)-1H-indazol-3-yl)-5-isopropyl-4,5,6,7-tetrahydro-3H-imidazo[4,5-c]pyridin-6-yl)methanone]",AUC0-24,"[1]; 1 mg QD inhaled, Day 1",18.42 ng·h/mL
same,Cmax,"[1]; 1 mg QD inhaled, Day 7",5.699 ng/mL
same,Tmax,[1]; [3],approximately 1 hour
same,terminal elimination half-life,[1]; [3],approximately 24 hours
same,t1/2,"[1]; single inhaled dose 3 mg, mean (SD)",24.73 (2.802) hr
same,Still in Hospital at Day 28,"[2]; Part 1, 1 mg",0 subjects (%)
same,Died (All-Cause Mortality),"[2]; Part 1, 1 mg QD inhaled",1 (16.7%) subjects (%)
same,# Subjects Respiratory Failure-Free,[2]; [4],5 (83.3%) subjects (%)
same,Proportion of Subjects Alive and Respiratory Failure-free,[2]; [4],5 (83.3%) subjects (%)
same,deaths observed,"[2]; Part 1, 1 mg group",one
same,Hospital Discharge,"[2]; Part 1, 1 mg, Day 7",0 subjects (%)
same,Hospital Discharge,"[2]; Part 1, 1 mg, Day 14",2 (33.3%) subjects (%)
same,Hospital Discharge,"[2]; Part 1, 1 mg, Day 21",3 (50.0%) subjects (%)
same,"Clinical Status 1-Not hospitalized, no limitations on activities","[2]; Part 1, 1 mg, Day 28",5 (83.3%) subjects (%)
same,"Clinical Status 2-Not hospitalized, but with limitations on activities and/or requiring home oxygen","[2]; Part 1, 1 mg, Day 28",0 subjects (%)
same,"Clinical Status 3-Hospitalized, not requiring supplemental oxygen, and no longer requiring ongoing medical care","[2]; Part 1, 1 mg, Day 28",0 subjects (%)
same,"Clinical Status 4-Hospitalized, not requiring supplemental oxygen, but requiring ongoing medical care","[2]; Part 1, 1 mg, Day 28",0 subjects (%)
same,"Clinical Status 5-Hospitalized, requiring supplemental oxygen","[2]; Part 1, 1 mg, Day 28",0 subjects (%)
same,"Clinical Status 6-Hospitalized, on non-invasive ventilation or high-flow oxygen devices","[2]; Part 1, 1 mg, Day 28",0 subjects (%)
same,"Clinical Status 7-Hospitalized, on invasive mechanical ventilation or extracorporeal membrane oxygenation","[2]; Part 1, 1 mg, Day 28",0 subjects (%)
same,Clinical Status 8-Death,"[2]; Part 1, 1 mg, Day 28",1 (16.7%) subjects (%)
same,Hospital Discharge,"[2]; Part 1, 1 mg, Day 28",5 (83.3%) subjects (%)
same,Still in Hospital at Day 28,"[2]; Part 1, 3 mg",0 subjects (%)
same,Died (All-Cause Mortality),"[2]; Part 1, 3 mg QD inhaled",0 subjects (%)
same,# Subjects Respiratory Failure-Free,[2]; [5],6 (85.7%)* subjects (%)
same,Proportion of Subjects Alive and Respiratory Failure-free,[2]; [5],6 (85.7%)* subjects (%)
same,Hospital Discharge,"[2]; Part 1, 3 mg, Day 7",1 (14.3%) subjects (%)
same,Hospital Discharge,"[2]; Part 1, 3 mg, Day 14",2 (28.6%) subjects (%)
same,Hospital Discharge,"[2]; Part 1, 3 mg, Day 21",6 (85.7%) subjects (%)
same,"Clinical Status 1-Not hospitalized, no limitations on activities","[2]; Part 1, 3 mg, Day 28",5 (83.3%) subjects (%)
same,"Clinical Status 2-Not hospitalized, but with limitations on activities and/or requiring home oxygen","[2]; Part 1, 3 mg, Day 28",0 subjects (%)
same,"Clinical Status 3-Hospitalized, not requiring supplemental oxygen, and no longer requiring ongoing medical care","[2]; Part 1, 3 mg, Day 28",0 subjects (%)
same,"Clinical Status 4-Hospitalized, not requiring supplemental oxygen, but requiring ongoing medical care","[2]; Part 1, 3 mg, Day 28",1 (16.7%) subjects (%)
same,"Clinical Status 5-Hospitalized, requiring supplemental oxygen","[2]; Part 1, 3 mg, Day 28",0 subjects (%)
same,"Clinical Status 6-Hospitalized, on non-invasive ventilation or high-flow oxygen devices","[2]; Part 1, 3 mg, Day 28",0 subjects (%)
same,"Clinical Status 7-Hospitalized, on invasive mechanical ventilation or extracorporeal membrane oxygenation","[2]; Part 1, 3 mg, Day 28",0 subjects (%)
same,Clinical Status 8-Death,"[2]; Part 1, 3 mg, Day 28",0 subjects (%)
same,Hospital Discharge,"[2]; Part 1, 3 mg, Day 28",7 (100%) subjects (%)
same,subjects discharged from the hospital,"[2]; Part 1, 3 mg, by Day 21 (placebo 50%)",86%
same,Still in Hospital at Day 28,"[2]; Part 1, 10 mg",0 subjects (%)
